By IC50 is commonly meant the midpoint of a concentration-inhibition curve. Low values mean inhibition by little substance, high ones a need for much substance.

The results in this text go back to patent US9481670B2, “Triazine compounds” (Sphaera Pharma PTE. Ltd., priority 2011, dated 2016).

Each structure is given as a SMILES string. A value given as a limit tells only on which side of the number the result lay.

For this assay, the target named is T1, PI3K alpha (Homo sapiens, UniProt P42336).
T1 construct: purchased Millipore Upstate
T1 sequence (P42336 whole entry): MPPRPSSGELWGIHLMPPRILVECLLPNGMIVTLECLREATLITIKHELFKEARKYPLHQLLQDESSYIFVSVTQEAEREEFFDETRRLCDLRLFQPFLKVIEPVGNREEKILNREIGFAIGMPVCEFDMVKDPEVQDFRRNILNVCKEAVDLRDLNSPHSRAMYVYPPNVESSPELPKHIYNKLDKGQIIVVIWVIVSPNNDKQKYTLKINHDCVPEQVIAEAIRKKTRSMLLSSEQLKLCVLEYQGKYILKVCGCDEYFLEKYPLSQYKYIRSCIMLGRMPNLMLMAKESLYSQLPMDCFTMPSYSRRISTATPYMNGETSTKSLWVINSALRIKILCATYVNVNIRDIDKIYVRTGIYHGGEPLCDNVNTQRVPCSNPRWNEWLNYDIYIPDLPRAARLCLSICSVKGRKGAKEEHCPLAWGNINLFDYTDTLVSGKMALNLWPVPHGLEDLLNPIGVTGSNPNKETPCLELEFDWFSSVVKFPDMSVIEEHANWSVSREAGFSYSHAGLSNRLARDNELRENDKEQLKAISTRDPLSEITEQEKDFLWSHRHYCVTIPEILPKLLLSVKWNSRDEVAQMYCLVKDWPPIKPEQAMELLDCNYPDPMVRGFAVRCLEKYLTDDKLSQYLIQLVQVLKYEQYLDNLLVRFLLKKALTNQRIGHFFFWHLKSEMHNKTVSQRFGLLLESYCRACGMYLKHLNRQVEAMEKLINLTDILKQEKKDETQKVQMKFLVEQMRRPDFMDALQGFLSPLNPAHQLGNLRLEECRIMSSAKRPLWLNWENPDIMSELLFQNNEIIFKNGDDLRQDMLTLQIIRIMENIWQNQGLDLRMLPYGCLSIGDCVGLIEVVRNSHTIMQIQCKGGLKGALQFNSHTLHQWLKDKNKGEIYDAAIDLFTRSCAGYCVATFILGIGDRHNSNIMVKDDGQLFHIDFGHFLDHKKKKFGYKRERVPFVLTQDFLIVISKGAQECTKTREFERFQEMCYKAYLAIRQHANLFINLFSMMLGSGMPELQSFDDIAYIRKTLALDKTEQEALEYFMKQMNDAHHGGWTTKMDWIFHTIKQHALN
T1 sequence (P27986 whole entry partner): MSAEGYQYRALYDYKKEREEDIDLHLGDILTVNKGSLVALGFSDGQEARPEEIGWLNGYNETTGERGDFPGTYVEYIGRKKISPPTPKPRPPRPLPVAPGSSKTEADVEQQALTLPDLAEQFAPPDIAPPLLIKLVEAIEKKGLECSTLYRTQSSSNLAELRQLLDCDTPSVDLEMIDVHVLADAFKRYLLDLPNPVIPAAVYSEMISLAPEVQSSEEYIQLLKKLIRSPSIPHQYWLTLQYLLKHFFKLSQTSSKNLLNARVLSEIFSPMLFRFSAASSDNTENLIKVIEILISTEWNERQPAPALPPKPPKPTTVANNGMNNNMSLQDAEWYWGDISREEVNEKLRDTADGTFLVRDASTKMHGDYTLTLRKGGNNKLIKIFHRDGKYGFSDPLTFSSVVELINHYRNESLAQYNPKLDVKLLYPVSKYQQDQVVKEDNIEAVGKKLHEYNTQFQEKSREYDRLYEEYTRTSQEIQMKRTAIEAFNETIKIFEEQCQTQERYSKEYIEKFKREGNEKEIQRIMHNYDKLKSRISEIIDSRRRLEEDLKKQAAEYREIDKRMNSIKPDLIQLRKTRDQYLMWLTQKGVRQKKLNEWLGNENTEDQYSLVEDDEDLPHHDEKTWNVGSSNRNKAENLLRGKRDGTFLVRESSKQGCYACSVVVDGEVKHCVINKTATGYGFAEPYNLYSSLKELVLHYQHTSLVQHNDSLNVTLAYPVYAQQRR
In words: P110 Alpha TR-FRET Assay (PI3K alpha kinase assay, HTRF Transcreener ADP Assay). The settings on record: PI3K (WT). The class given is biochemical. The method, then: PI3K alpha kinase assay may be done using HTRF Transcreener ADP Assay (Cisbio).
Composition of the reaction buffer was as follows 50 mM HEPES, pH 7.5, 5 mM MgCl2, 1 mM DTT, 30 μM Na3VO4. PI3 Kinase was procured from Millipore Upstate. […] ATP was used at final concentration of 10 μM. Corning 384 well white plates were used for the assay.
2 μl of diluted enzyme (50 ng), 3 μl of diluted compound and 5 μl of buffer were added, mixed then incubated for 20 minutes with shaking at 400 rpm. 3 μl of substrate (10 μM of ATP and 5 μM PIP2) were added to initiate the reaction. The samples were incubated for 20 min. At the end of the reaction time 10 μl of the Detection mix (5 μl of ADP-D2 and 5 μl of Anti-ADP-Cryptate) was added and the contents were incubated for 1 h. The reaction plate was directly read in an Envision Multilabel Plate Reader.
A general note: Time-resolved FRET reads energy transfer from a long-lived donor to a nearby acceptor.
Compound `CN(C)C(=O)c1ccc(Oc2nc(-c3cccc4[nH]ncc34)nc(N3CC4(COC4)C3)n2)cc1` [Compound 1055, 4-8-{[4-5-(1H-indazol-4-yl)-6-3-{2-oxa-6-azaspiro[3.3]heptan-6-yl}-1,3,5-triazin-2-yl]oxy}-N,N-dimethylbenzamide] yielded an IC50 greater than 5 µM.

Take `CN(C)C(=O)c1cccc(Nc2nc(-c3cccc4[nH]ncc34)nc(N3CC(C(N)=O)C3)n2)c1` [Compound 1056]: the IC50 is greater than 5 µM.

In the case of `CN(C)C(=O)c1ccc(Oc2nc(NC3CCOCC3)nc(-c3cccc4[nH]ncc34)n2)cc1` [Compound 1057, 4-((4-(1H-indazol-4-yl)-6-((tetrahydro-2H-pyran-4-yl)amino)-1,3,5-triazin-2-yl)oxy)-N,N-dimethylbenzamide], the IC50 is greater than 5 µM.

For `CN(C)C(=O)c1ccc(Oc2nc(-c3ccnc4[nH]ccc34)nc(N3CCOCC3)n2)cc1` [Compound 1058, N,N-dimethyl-4-14-{[4-5-(morpholin-4-yl)-6-1-{1H-pyrrolo[2,3-b]pyridin-4-yl}-1,3,5-triazin-2-yl]oxy}benzamide], the concentration for half-maximal inhibition (IC50) was less than 5 µM.

With `CN(C)C(=O)c1ccc(Oc2nc(-c3cccc4[nH]ncc34)nc(N3CCNC(=O)C3)n2)cc1` [Compound 1059, 4-7-{[4-5-(1H-indazol-4-yl)-6-3-(3-29-oxopiperazin-1-yl)-1,3,5-triazin-2-yl]oxy}-N,N-dimethylbenzamide], the half-maximal inhibitory concentration (IC50) was greater than 5 µM.

`CN(C)C(=O)c1cccc(Nc2nc(-c3ccc(N)nc3)nc(N3CCOCC3)n2)c1` [Compound 1060, 3-((4-(6-aminopyridin-3-yl)-6-morpholino-1,3,5-triazin-2-yl)amino)-N,N-dimethylbenzamide] displayed an IC50 of less than 5 µM.

In the case of `CN1CCN(c2nc(Oc3ccc(C(=O)N(C)C)cc3)nc(-c3cccc4[nH]ncc34)n2)CC1` [Compound 1061, 4-9-{[4-1-(1H-indazol-4-yl)-6-5-(4-30-methylpiperazin-1-yl)-1,3,5-triazin-2-yl]oxy}-N,N-dimethylbenzamide], the IC50 is greater than 5 µM.

In turn, `CS(=O)(=O)N1CCN(c2nc(-c3cnc(N)nc3)nc(N3CCOCC3)n2)CC1` [Compound 1062, 5-13-[4-3-(4-22-methanesulfonylpiperazin-1-yl)-6-5-(morpholin-4-yl)-1,3,5-triazin-2-yl]pyrimidin-2-amine] returned an IC50 of less than 5 µM.

Turning to `O=C1CCc2cc(Oc3nc(-c4cccc5[nH]ncc45)nc(N4CCOCC4)n3)ccc2N1` [Compound 1063, 6-14-{[4-1-(1H-indazol-4-yl)-6-5-(morpholin-4-yl)-1,3,5-triazin-2-yl]oxy}-1,2,3,4-tetrahydroquinolin-2-one], the IC50 is less than 5 µM.

In turn, `CN(C)C(=O)c1ccc(Oc2nc(-c3cccc4[nH]ccc34)nc(N3CCOCC3)n2)cc1` [Compound 1064, 4-14-{[4-1-(1H-indol-4-yl)-6-5-(morpholin-4-yl)-1,3,5-triazin-2-yl]oxy}-N,N-dimethylbenzamide] returned a 50% inhibitory concentration (IC50) of less than 5 µM.

Compound `CN(C)C(=O)c1ccc(Nc2nc(-c3ccc(N)nc3)nc(N3CCOCC3)n2)cc1` [Compound 1065, 4-((4-(6-aminopyridin-3-yl)-6-morpholino-1,3,5-triazin-2-yl)amino)-N,N-dimethylbenzamide] returned a 50% inhibitory concentration (IC50) of less than 5 µM.

On to `C[C@H](Nc1nc(-c2cccc(NS(C)(=O)=O)c2)nc(N2CCOCC2)n1)C(=O)N1CCN(S(C)(=O)=O)CC1` [Compound 1066, N-[3-16-(4-1-{[(2S)-1-(4-30-methanesulfonylpiperazin-1-yl)-1-oxopropan-2-yl]amino}-6-2-(morpholin-4-yl)-1,3,5-triazin-2-yl)phenyl]methanesulfonamide], for which the concentration for half-maximal inhibition (IC50) was greater than 5 µM.

As to `CN(C)C(=O)c1cc(Oc2nc(-c3cccc4[nH]ncc34)nc(N3CCOCC3)n2)cs1` [Compound 1067, 4-14-{[4-1-(1H-indazol-4-yl)-6-5-(morpholin-4-yl)-1,3,5-triazin-2-yl]oxy}-N,N-dimethylthiophene-2-carboxamide], the 50% inhibitory concentration (IC50) is less than 5 µM.

`CN(C)C(=O)c1ccc(Oc2nc(-c3cccc4[nH]ncc34)nc(N3C4CCC3COC4)n2)cc1` [Compound 1068, 4-9-{[4-1-(1H-indazol-4-yl)-6-5-{3-oxa-8-azabicyclo[3.2.1]octan-8-yl}-1,3,5-triazin-2-yl]oxy}-N,N-dimethylbenzamide] gave an IC50 greater than 5 µM.

The compound `CN(C)C(=O)NC1CCN(c2nc(-c3ccc(N)nc3)nc(N3CCOCC3)n2)CC1` [Compound 1069, 1-{1-7-[4-3-(6-16-aminopyridin-3-yl)-6-5-(morpholin-4-yl)-1,3,5-triazin-2-yl]piperidin-4-yl}-3,3-dimethylurea] came in with an IC50 of less than 5 µM.

For `CN(C)C(=O)CNc1nc(-c2cccc3c2CCC3O)nc(N2CCOCC2)n1` (centres unmarked) [Compound 1070, 2-((4-(1-hydroxy-2,3-dihydro-1H-inden-4-yl)-6-morpholino-1,3,5-triazin-2-yl)amino)-N,N-dimethylacetamide], the IC50 was greater than 5 µM.

On to `Nc1ccc(-c2nc(CO)nc(N3CCOCC3)n2)cn1` [Compound 1071, 1-7-[4-3-(6-16-aminopyridin-3-yl)-6-5-(morpholin-4-yl)-1,3,5-triazin-2-yl]methanol], for which the concentration for half-maximal inhibition (IC50) is less than 5 µM.

Compound `CN(C)C(=O)c1ccc(Oc2nc(-c3cccc4[nH]ncc34)nc(N3CCOCC3)n2)nc1` [Compound 1072, 6-14-{[4-1-(1H-indazol-4-yl)-6-5-(morpholin-4-yl)-1,3,5-triazin-2-yl]oxy}-N,N-dimethylpyridine-3-carboxamide] had an IC50 greater than 5 µM.

For `CN(C)C(=O)c1ccc(Oc2nc(-c3cccc4[nH]ncc34)nc(N3CCCOCC3)n2)cc1` [Compound 1073, 4-7-{[4-5-(1H-indazol-4-yl)-6-3-(1,4-oxazepan-4-yl)-1,3,5-triazin-2-yl]oxy}-N,N-dimethylbenzamide], the IC50 is less than 5 µM.

Consider `CS(=O)(=O)N1CCN(C(=O)CNc2nc(-c3ccc(O)nc3)nc(N3CCOCC3)n2)CC1` [Compound 1074, 2-((4-(6-hydroxypyridin-3-yl)-6-morpholino-1,3,5-triazin-2-yl)amino)-1-(4-(methylsulfonyl)piperazin-1-yl)ethanone], for which the concentration for half-maximal inhibition (IC50) was less than 5 µM.

The compound `COC1CN(c2nc(Oc3ccc(C(=O)N(C)C)cc3)nc(-c3cccc4[nH]ncc34)n2)C1` [Compound 1075, 4-9-{[4-1-(1H-indazol-4-yl)-6-5-(3-29-methoxyazetidin-1-yl)-1,3,5-triazin-2-yl]oxy}-N,N-dimethylbenzamide] displayed an IC50 greater than 5 µM.

In turn, `CC(Nc1nc(-c2cccc(O)c2)nc(N2CCOCC2)n1)C(=O)N1CCN(S(C)(=O)=O)CC1` (centres unmarked) [Compound 1076, 2-((4-(3-hydroxyphenyl)-6-morpholino-1,3,5-triazin-2-yl)amino)-1-(4-(methylsulfonyl)piperazin-1-yl)propan-1-one] had an IC50 of less than 5 µM.

`Nc1ncc(-c2nc(N3CCNCC3)nc(N3CCOCC3)n2)cn1` [Compound 1077, 5-13-[4-5-(morpholin-4-yl)-6-3-(piperazin-1-yl)-1,3,5-triazin-2-yl]pyrimidin-2-amine] had a concentration for half-maximal inhibition (IC50) of less than 5 µM.

On to `O=C(O)CNc1nc(-c2cccc3c2CCC3=O)nc(N2CCOCC2)n1` [Compound 1078, 2-((4-morpholino-6-(1-oxo-2,3-dihydro-1H-inden-4-yl)-1,3,5-triazin-2-yl)amino)acetic acid], for which the IC50 is greater than 5 µM.

For the compound `COc1cccc(-c2nc(NCC(=O)N3CCN(S(C)(=O)=O)CC3)nc(N3CCOCC3)n2)c1` [Compound 1079, 2-((4-(3-methoxyphenyl)-6-morpholino-1,3,5-triazin-2-yl)amino)-1-(4-(methylsulfonyl)piperazin-1-yl)ethanone], the concentration for half-maximal inhibition (IC50) was greater than 5 µM.

`CS(=O)(=O)N1CCN(C(=O)CNc2nc(-c3ccc(F)nc3)nc(N3CCOCC3)n2)CC1` [Compound 1080, 2-((4-(6-fluoropyridin-3-yl)-6-morpholino-1,3,5-triazin-2-yl)amino)-1-(4-(methylsulfonyl)piperazin-1-yl)ethanone] had an IC50 greater than 5 µM.

As for `CNC(=O)c1ccc(Oc2nc(-c3cnc(N)s3)nc(N3CCOCC3)n2)cc1` [Compound 1082], the concentration for half-maximal inhibition (IC50) was less than 5 µM.

The compound `CS(=O)(=O)N[C@@H]1CC[C@@H](Oc2nc(-c3cccc4[nH]ncc34)nc(N3CCOCC3)n2)C1` [Compound 1083, N-[(1R,3R)-3-14-{[4-1-(1H-indazol-4-yl)-6-5-(morpholin-4-yl)-1,3,5-triazin-2-yl]oxy}cyclopentyl]methanesulfonamide] gave an IC50 of less than 5 µM.

Compound `c1ccc(Nc2nc(-c3cccc4c3cnn4C3CCCCO3)nc(N3CCOCC3)n2)cc1` (centres unmarked) [Compound 1084, 4-morpholino-N-phenyl-6-(1-(tetrahydro-2H-pyran-2-yl)-1H-indazol-4-yl)-1,3,5-triazin-2-amine] came in with a half-maximal inhibitory concentration (IC50) greater than 5 µM.

`CN(C)C(=O)Cc1ccc(Oc2nc(-c3cccc4[nH]ncc34)nc(N3CCOCC3)n2)cc1` [Compound 1085, 2-27-(4-14-{[4-1-(1H-indazol-4-yl)-6-5-(morpholin-4-yl)-1,3,5-triazin-2-yl]oxy}phenyl)-N,N-dimethylacetamide] came in with an IC50 of less than 5 µM.

`O=c1[nH]c2ccc(Oc3nc(-c4cccc5[nH]ncc45)nc(N4CCOCC4)n3)cc2[nH]1` [Compound 1086, 5-23-{[4-1-(1H-indazol-4-yl)-6-5-(morpholin-4-yl)-1,3,5-triazin-2-yl]oxy}-2,3-dihydro-1H-1,3-benzodiazol-2-one] came in with an IC50 of less than 5 µM.

Regarding `CN(C)C(=O)N1CCCC(Oc2nc(-c3cccc4[nH]ncc34)nc(N3CCOCC3)n2)CC1` (centres unmarked) [Compound 1087, 4-14-{[4-1-(1H-indazol-4-yl)-6-5-(morpholin-4-yl)-1,3,5-triazin-2-yl]oxy}-N,N-dimethylazepane-1-carboxamide], the concentration for half-maximal inhibition (IC50) is less than 5 µM.
